Data published in patent US7034055B1, “2-aminoindane analogs” (Prescient Neuropharma Inc., priority 1999, dated 2006).
Read-outs that look alike come from different tables or passages of the source.

Experiments:
[1] = system: Group II/III metabotropic glutamate receptors (mGluRs); assay: Cyclic AMP assay (ex vivo, forskolin-induced cAMP accumulation in rat cortical slices); type: cell-based, Sprague Dawley rat
Description: The assay of cyclic AMP formation can be performed as described previously (Tovey et al., Clinica Chimica Acta, 56, 221-234, 1974). The assay can be modelled on the cyclic AMP assay kit available from Amersham, which in turn, is based on the assay created by Tovey et al. Briefly, samples are prepared from Sprague Dawley rat (225-250 g) cortical slices. Slices are incubated with the drug, and then challenged with forskolin to induce cyclic AMP release. Following termination of the reaction by boiling, the slices are homogenized and centrifuged. Samples of supernatant are then incubated for 2-3 hours with a known quantity of [^3H]cAMP and a binding protein. […] The resulting supernatant (containing free cyclic AMP) is then analyzed by liquid scintillation counting. The amount of unbound cyclic AMP can be calculated from a standard curve previously determined with various samples of free cyclic AMP. […]
The assay has been modeled on the cyclic AMP assay kit available from Amersham. […] Samples of supernatant were then incubated for 2-3 hours with a known quantity of [^3H]cAMP and a binding protein. […] The resulting supernatant (containing free cyclic AMP) was then analyzed by liquid scintillation counting. The amount of unbound cyclic AMP was calculated from a standard curve previously determined with various samples of free cyclic AMP. […]

[2] = system: Group I metabotropic glutamate receptors (mGluRs); assay: Phosphatidylinositol assay (ex vivo, inositol phosphate accumulation in neonatal rat tissue slices); type: cell-based, Sprague Dawley rat; conditions: antagonist, versus ACPD, 45 minutes
Description: Briefly, cross-chopped slices are prepared from neonatal Sprague Dawley rat tissue (age: p7-p14). The slices are pre-labelled with [^3H] myo-inositol. Following pre-labelling, the slices are incubated with the test drugs and standard (known Group I agonists i.e. ACPD) for a period of 45 minutes. The incubation is terminated by the addition of chloroform/methanol/HCl (100:200:2). The resulting mixture is separated into two phases by the addition of chloroform and distilled water. The aqueous fraction is applied to ion exchange columns, and inositol phosphates are eluted using 800 mM Ammonium Formate/100 mM Formic Acid. The eluent is then analyzed using liquid scintillation counting. The amount of inositol phosphate accumulation is expressed as a percentage of that induced by ACPD.
Group I metabotropic glutamate receptors (mGluRs) are positively coupled on inositol phosphate metabolism. Agonists at these receptors lead to an increase in intracellular free inositol phosphates, while antagonists inhibit the increase in intracellular free inositol phosphate induced by standard agonists (i.e. ACPD).
Cross-chopped slices were prepared from neonatal Sprague Dawley rat tissue (age: p7-p14). […] The eluent was then analyzed using liquid scintillation counting. The amount of inositol phosphate accumulation was expressed as a percentage of that induced by ACPD. […]

Row | Compound | EC50 ([1]; antagonist, versus glutamate, read-out: Group II/III Antagonist EC50) | EC50 [2] | EC50 ([1]; agonist, read-out: Group II/III Agonist EC50)
1 | N[C@@]1(C(=O)O)Cc2ccccc2[C@H]1CC(=O)O (relative stereo) [Cis-2 amino-2-carboxyindaneacetic acid (compound 8)] | 0.0012 µM | 2.2 µM | 
2 | N[C@]1(C(=O)O)Cc2ccccc2[C@H]1CC(=O)O (relative stereo) [Trans-2 amino-2-carboxyindaneacetic acid (compound 8)] |  | 1600 µM | 0.11 µM
